Here are results for one substance from PMC2710007, “Anchoring Secreted Proteins in Endoplasmic Reticulum by Plant Oleosin: The Example of Vitamin B12 Cellular Sequestration by Transcobalamin” (PLoS ONE, 2009).

This experiment addresses T1, transcobalamin-oleosin (TC-O) chimera (Homo sapiens, UniProt P20062).
T1 construct: gene TCN2; single fusion: human TC without N-terminal signal peptide and stop codon, at the N-terminal side of full-length peanut oleosin (ER anchor; printed oleosin primer encodes MATATDR...); pAcSG2 baculovirus, Sf9 cells; membrane fraction, not purified; with Oleosin (peanut, 17 kDa)
T1 sequence (P20062 19-427): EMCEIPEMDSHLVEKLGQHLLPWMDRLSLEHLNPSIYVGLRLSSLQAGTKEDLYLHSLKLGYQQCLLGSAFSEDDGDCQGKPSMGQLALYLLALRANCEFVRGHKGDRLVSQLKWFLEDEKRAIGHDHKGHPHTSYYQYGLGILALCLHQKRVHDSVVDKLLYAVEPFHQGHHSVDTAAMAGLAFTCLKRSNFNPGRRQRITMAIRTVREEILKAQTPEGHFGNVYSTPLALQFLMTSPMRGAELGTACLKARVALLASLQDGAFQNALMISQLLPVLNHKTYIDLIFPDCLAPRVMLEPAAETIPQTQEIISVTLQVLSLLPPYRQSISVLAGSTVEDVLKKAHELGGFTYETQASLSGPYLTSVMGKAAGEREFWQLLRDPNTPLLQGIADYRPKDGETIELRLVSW
Description: radioligand saturation binding, Scatchard plot. The note with it: membrane fraction of lysed Sf9 cells; 57Co labelled compound; TBS, 4 °C, 20 min; printed as Ka but in a concentration unit (that of a dissociation constant). Type of experiment: biochemical.

Regarding [57Co]-labeled vitamin B12, the Ka was ~ 0.02 pmol/L.
